Non-standard residues stand in square brackets, D forms with d. Residues, ends and D or L forms follow the SMILES beside them. *: point of attachment. Trp(6-Cl) = N[C@@H](Cc1c[nH]c2cc(Cl)ccc12)C(=O)O; Pip = O=C(O)[C@@H]1CCCCN1; ClAc = O=C(CCl)*
Assays:
Pin1 in BxPC3 cells = Pin1 in BxPC3 cells (Homo sapiens, UniProt Q13526); assay: Pin1 degradation by western blot in BxPC3 cells; type: cell-based; parameters: endogenous in cells; host or cells: BxPC3, MIA PaCa-2; conditions: BxPC3, 0.5-15 μM for 24 h, Pin1 relative to β-actin
Chain of Pin1 in BxPC3 cells (Q13526 whole entry): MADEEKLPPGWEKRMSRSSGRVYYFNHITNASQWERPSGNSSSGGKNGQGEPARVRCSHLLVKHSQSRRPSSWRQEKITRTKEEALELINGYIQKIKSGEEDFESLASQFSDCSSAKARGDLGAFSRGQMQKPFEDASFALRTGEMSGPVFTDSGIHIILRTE
Procedure: (§1) To ascertain that the plasma-stable agent 164B8 retained its ability to induce Pin1 degradation in cells, we tested it in three pancreatic cancer cell lines—human BxPC3 and MIA PaCa-2, and the mouse pancreatic cancer cell line KPC—using western blot analysis (Figure 2).
(§2) Figure 2 Degradation of Pin1 in different cell lines in response to 164B8 treatment BxPC3, MIA PaCa-2, and KPC were each treated with 0.1% DMSO and concentrations of 164B8 ranging between 0.5 and 15 μM for 24 h, and Pin1 levels were quantified with respect to β-actin using a specific anti-Pin1 antibody and western blotting (uncropped blots are reported in Figure S6).
(§3) At the end of the treatments, cells were lysed with a lysis buffer containing 20 mM Tris (pH 7.4), 1% Triton X-100, 5 mM EDTA, 0.1% sodium dodecyl sulfate (SDS), 1% IGEPAL, 0.5% sodium deoxycholate, 120 mM NaCl, and a protease inhibitor cocktail and PhosSTOP (Sigma-Aldrich). Lysates were then centrifuged at 16,000 × g for 20 min at 4°C, and the supernatants were collected. Protein concentrations were determined using the Pierce BCA Protein Assay Kit (Thermo Fisher Scientific) according to the manufacturer’s protocol. For traditional western blotting (Figure 2), samples were loaded onto precast Bis-Tris gels and subsequently transferred onto PVDF membranes. […]

Pin1 in KPC cells = target: T1, Pin1 in KPC cells (Mus musculus, UniProt Q9QUR7); assay: Pin1 degradation by western blot in KPC cells; type: cell-based; conditions: 0.5-15 μM for 24 h, Pin1 relative to β-actin
T1 construct: endogenous in cells; host or cells: KPC
T1 sequence (Q9QUR7 whole entry): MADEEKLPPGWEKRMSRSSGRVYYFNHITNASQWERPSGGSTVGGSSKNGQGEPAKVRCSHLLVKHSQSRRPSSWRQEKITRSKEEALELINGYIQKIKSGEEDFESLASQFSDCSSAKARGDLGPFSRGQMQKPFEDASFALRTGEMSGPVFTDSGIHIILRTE
Procedure: as §1, §2, §3

[1] = 164B8 concentration in tissues of treated mice by LC-MS; type: in vivo, mouse; conditions: for 164B8 conc. (ng/mg) Predicted means (LS means) Adjacent Peritoneum / 164B8 conc. (ng/mg) Predicted means (LS means) Liver / 164B8 conc. (ng/mg) Predicted means (LS means) Tumor: 6 h after last dose, LC-MS, two-way ANOVA LS mean (Figure 7B)
Procedure: To further verify that the observed activity was due to direct inhibition of Pin1 in vivo, we analyzed tumor tissues to measure 164B8 levels and Pin1 degradation in both tumor and normal tissues. At day 14, 6 h after the final intraperitoneal dose, 164B8 was detected and quantified in tumor tissue via liquid chromatography-mass spectrometry (LC-MS). Significant levels of 164B8 were detected in the liver, tumor-adjacent peritoneum, and tumor tissues collected from mice treated with either 30 mg/kg or 60 mg/kg (Figure 7A). The average tumor values were 0.62 ng/mg for mice treated with 30 mg/kg 164B8 and approximately 8 ng/mg for those treated with 60 mg/kg 164B8, compared with the vehicle control (0.03 ng/mg). In mice treated with 164B8 at 60 mg/kg, we observed enrichment of 164B8 in tumor tissues compared with adjacent normal tissues (mean: 3.65 vs. 8 ng/mg, p = 0.035) and normal liver tissues (mean: 0.75 vs. 8 ng/mg, p = 0.0003). For the 30 mg/kg dose, drug levels were numerically higher in tumor tissue (0.62 ng/mg) compared with adjacent normal peritoneum (0.11 ng/mg) and liver (0.10 ng/mg), although these differences were not statistically significant after adjustment for multiple comparisons (Figures 7A and 7B). Likewise, Pin1 levels in tumor tissues were detected via western blotting (Figure 7C).
Figure 7 Determination of Pin1 levels and 164B8 concentration in treated mice Pin1 drug concentration and Pin1 levels in tumors were measured 6 h after the last dose of 164B8 treatment by LC-MS (A and B) and western blot (C), respectively. Drug concentrations among the three groups were compared using two-way ANOVA in Prism, accounting for interactions (D). Tukey’s multiple comparison test was used to compare multiple groups (∗∗∗p = 0.0003, ∗p = 0.035). Pin1 levels were compared among the three groups after normalizing to β-actin (loading control) using one-way ANOVA and adjusting for multiple comparisons (∗∗∗p < 0.001). TEXT PRINTED IN THE PICTURE: (B) 164B8: 164B8 conc. (ng/mg) Predicted means (LS means) Liver: 0.1017 (30mg/kg); 164B8 conc. (ng/mg) Predicted means (LS means) Adjacent Peritoneum: 0.1133 (30mg/kg); 164B8 conc. (ng/mg) Predicted means (LS means) Tumor: 0.6183 (30mg/kg); 164B8 conc. (ng/mg) Predicted means (LS means) Column means: 0.2778 (30mg/kg); 164B8 conc. (ng/mg) Predicted means (LS means) Liver: 0.7550 (60mg/kg); 164B8 conc. (ng/mg) Predicted means (LS means) Adjacent Peritoneum: 3.648 (60mg/kg); 164B8 conc. (ng/mg) Predicted means (LS means) Tumor: 8.005 (60mg/kg); 164B8 conc. (ng/mg) Predicted means (LS means) Column means: 4.136 (60mg/kg)
Bioluminescent imaging (BLI) was performed one week post-inoculation. Based on imaging intensity, mice were re-grouped to ensure six animals per group. The PIN1 inhibitor was administered via intraperitoneal injection at doses of 30 mg/kg or 60 mg/kg, once daily, 5 days per week for 2 weeks. Tumor engraftment and growth were monitored by in vivo BLI. D-luciferin potassium salt was dissolved in sterile PBS to a final concentration of 16.6 mg/mL and mice were injected intraperitoneally with D-luciferin solution (0.139 g luciferin/kg body weight), then imaged 10–15 min after luciferin injection using an IVIS Spectrum Imaging System (Lago X) with identical exposure times and binning settings for all mice. Bioluminescence signal intensity was quantified as total flux (photons/s) within a region of interest (ROI) using Aura image software. BLI was performed once every week during the treatment. After 2 weeks of treatment, mice were euthanized 6 h after the final dose. Blood samples were collected via cardiac puncture, and normal peritoneum, intestine, and liver tissues were harvested and snap-frozen on dry ice.

## CNC(=O)[C@H](Cc1c[nH]c2ccccc12)NC(=O)[C@@H]1CCCCN1C(=O)[C@H](Cc1c[nH]c2cc(Cl)ccc12)NC(=O)CCl [164B8] (ClAc-[Trp(6-Cl)]-[Pip]-Trp-NHMe)
Pin1 in BxPC3 cells
  DC50 of Pin1 degradation: sub-micromolar
Pin1 in KPC cells
  DC50 of Pin1 degradation: sub-micromolar
[1]; 30mg/kg
  164B8 conc. (ng/mg) Predicted means (LS means) Adjacent Peritoneum: 0.1133 ng/mg
  164B8 conc. (ng/mg) Predicted means (LS means) Liver: 0.1017 ng/mg
  164B8 conc. (ng/mg) Predicted means (LS means) Tumor: 0.6183 ng/mg
[1]; 60mg/kg
  164B8 conc. (ng/mg) Predicted means (LS means) Adjacent Peritoneum: 3.648 ng/mg
  164B8 conc. (ng/mg) Predicted means (LS means) Liver: 0.7550 ng/mg
  164B8 conc. (ng/mg) Predicted means (LS means) Tumor: 8.005 ng/mg
[1]; 60mg/kg, mean over liver, adjacent peritoneum and tumor (Figure 7B)
  164B8 conc. (ng/mg) Predicted means (LS means) Column means: 4.136 ng/mg

Reference: PMC12657321, “Pre-clinical evaluation of a potent and effective Pin1-degrading agent in pancreatic cancer” (Molecular Therapy Oncology, 2025)
